Test results from PubChem BioAssay (NCI).
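Dose response: 5 concentrations. Exposure: 48 h. Format: 96-well plates. Endpoint: linear interpolation; highest concentration if not reached. At the TGI there is no net growth.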

Key:
Assay in all cases: inhibition of tumour cell growth, NCI panel, 48 h
[1] = system: XF 498 CNS
[2] = system: SK-OV-3 ovarian
[3] = system: DLD-1 colon
[4] = system: HL-60(TB) leukemia
[5] = system: UACC-62 melanoma
[6] = system: COLO 205 colon
[7] = system: MOLT-4 leukemia
[8] = system: DMS 273 small cell lung
[9] = system: HCC-2998 colon
[10] = system: 786-0 renal
[11] = system: CAKI-1 renal
[12] = system: SNB-78 CNS
[13] = system: SK-MEL-5 melanoma
[14] = system: SNB-75 CNS
[15] = system: MALME-3M melanoma
[16] = system: NCI-H23 lung
[17] = system: SK-MEL-28 melanoma
[18] = system: K-562 leukemia
[19] = system: TK-10 renal
[20] = system: OVCAR-5 ovarian
[21] = system: CCRF-CEM leukemia
[22] = system: IGROV1 ovarian
[23] = system: HOP-92 NSCLC
[24] = system: RPMI-8226 leukemia
[25] = system: HOP-62 NSCLC
[26] = system: SN12C renal
[27] = system: ACHN renal
[28] = system: RXF 393 renal
[29] = system: LXFL 529 NSCLC
[30] = system: SK-MEL-2 melanoma
[31] = system: OVCAR-4 ovarian
[32] = system: NCI-H460 lung
[33] = system: UO-31 renal
[34] = system: KM20L2 colon
[35] = system: M14 melanoma
[36] = system: SNB-19 CNS
[37] = system: KM12 colon
[38] = system: SF-268 CNS
[39] = system: LOX IMVI melanoma
[40] = system: UACC-257 melanoma
[41] = system: SF-295 CNS
[42] = system: M19-MEL melanoma
[43] = system: OVCAR-8 ovarian
[44] = system: HCT-15 colon
[45] = system: NCI-H522 lung
[46] = system: SW-620 colon
[47] = system: DMS 114 small cell lung
[48] = system: A549 NSCLC
[49] = system: OVCAR-3 ovarian
[50] = system: EKVX NSCLC
[51] = system: HCT-116 colon
[52] = system: SR leukemia
[53] = system: HOP-18 NSCLC
[54] = system: NCI-H226 lung
[55] = system: A498 renal
[56] = system: SF-539 CNS
[57] = system: HT29 colon
[58] = system: U251 CNS

Measured: TGI

O=C1N[C@H](Cc2cnc[nH]2)C(=O)N2CCC[C@@H]12
not listed: [51] | [52] | [53] | [54] | [55] | [56] | [57] | [58]
> 100 µM: all other assays above

CSc1nc2c(nc(N)n2C2OC(CO)C(O)C(O)C2O)c(=O)n1C (stereo not drawn)
not listed: [8] | [20] | [24] | [30] | [44]
> 100 µM: all other assays above
